According to patent US20100151001A1, “ETHYNYLATED HETERODINUCLEOSIDE PHOSPHATE ANALOGS, METHOD FOR THE PRODUCTION THEREOF, AND USE THEREOF” (Eberhard Karls Universitat Tubingen, priority 2007, published 2010):

Key:
[1] = test system: LOX IMVI melanoma xenograft
Procedure: A cell suspension of 5×10^6 tumor cells (LOX IMVI, cell line 01/A/1) was implanted subcutaneously in female athymic nude mice (Animal Production Area, Frederick, Md.). Intraperitoneal administration of the active substance began 3 days after tumor implantation. For this, the active substance was administered dissolved in 10% DMSO/common salt solution plus Tween® 80.
Administration was carried out in each case over a four-day period and comprised a total of 5 treatments. The tests were evaluated by determining the T/C values.
For a model based on solid tumors, a T/C value of 40 must be reached to be regarded as effective.

Tumor cell lines = assay: Cytostatic action in vitro, comparison over the tumor cell lines; assay type: cell-based
Procedure: (§1) Tumor cell lines, whose 100% growth inhibition (TGI) by the compounds according to the invention is determined at various concentrations, serve as the test system. The toxicity (LC50) of the compound to these cells is also determined. On day 0, a series of microtiter plates is inoculated with the tumor cells and preincubated for 24 h. Then the compound according to the invention is added to the cells in five in each case 10-fold diluted concentration, starting from the highest soluble concentration. After incubation for 48 hours, the cells are fixed in situ, washed and dried. Then sulforhodamine B (SRB), a pink dye that binds to the fixed cells, is added and the cells are washed again. The dye that remains represents the adherent cell mass and is determined spectroscopically. The automatically acquired data are evaluated by computer and lead, for the compound according to the invention 5-fluoro-2′-deoxyuridylyl-(5′-5′)-3′-C-ethynylcytidine and 5-fluoro-2′-deoxyuridylyl-(3′-5′)-3′-C-ethynylcytidine, to the following results, the data for the 3′-5′-coupled dimer being shown in bold above the data for the 5′-5′-coupled isomer.

HCC-2998 = assay: cells; assay type: cell-based; conditions: for TGI: HCC-2998 (intestine), 100% growth inhibition, 48 h, SRB; for CC50: Homo sapiens, HCC 2998, 48 h, read-out: LC50
Procedure: as §1

T-47D = assay: cells; assay type: cell-based; conditions: 48 h; for CC50: Homo sapiens, T47D, read-out: LC50; for TGI: T-47D (breast), 100% growth inhibition, SRB
Procedure: as §1

MCF7 = assay: cells; assay type: cell-based; conditions: for CC50: Homo sapiens, MCF7, 48 h, read-out: LC50; for TGI: MCF7 (breast), 100% growth inhibition, 48 h, SRB
Procedure: as §1

SF-295 = assay: cells; assay type: cell-based; conditions: for CC50: Homo sapiens, SF-295, 48 h, read-out: LC50; for TGI: SF-295 (central nervous system), 100% growth inhibition, 48 h, SRB
Procedure: as §1

ACHN = assay: cells; assay type: cell-based; conditions: 48 h; for TGI: ACHN (kidneys), 100% growth inhibition, SRB; for CC50: Homo sapiens, ACHN, read-out: LC50
Procedure: as §1

LOX IMVI = assay: cells; assay type: cell-based; conditions: 48 h; for CC50: Homo sapiens, LOX IMVI, read-out: LC50; for TGI: LOX IMVI (melanoma), 100% growth inhibition, SRB
Procedure: as §1

A549/ATCC = assay: cells; assay type: cell-based; conditions: for TGI: A549/ATCC (lung), 100% growth inhibition, 48 h incubation, SRB; for CC50: Homo sapiens, A549, 48 h, read-out: LC50
Procedure: as §1

BT-549 = assay: cells; assay type: cell-based; conditions: for TGI: BT-549 (breast), 100% growth inhibition, 48 h, SRB; for CC50: Homo sapiens, BT-549, 48 h, read-out: LC50
Procedure: as §1

DU-145 = assay: cells; assay type: cell-based; conditions: for TGI: DU-145 (prostate), 100% growth inhibition, 48 h, SRB; for CC50: Homo sapiens, DU-145, 48 h, read-out: LC50
Procedure: as §1

NCI-H522 = assay: cells; assay type: cell-based; conditions: for CC50: Homo sapiens, NCI-H522, 48 h, read-out: LC50; for TGI: NCI-H522 (lung), 100% growth inhibition, 48 h, SRB
Procedure: as §1

SNB-75 = assay: cells; assay type: cell-based; conditions: for CC50: Homo sapiens, SNB-75, 48 h, read-out: LC50; for TGI: SNB-75 (central nervous system), 100% growth inhibition, 48 h, SRB
Procedure: as §1

HOP-92 = assay: cells; assay type: cell-based; conditions: for TGI: HOP-92 (lung), 100% growth inhibition, 48 h, SRB; for CC50: Homo sapiens, HOP-92, 48 h, read-out: LC50
Procedure: as §1

IGROV1 = assay: cells; assay type: cell-based; conditions: for CC50: Homo sapiens, IGROV-1, 48 h, read-out: LC50; for TGI: IGROV1 (ovaries), 100% growth inhibition, 48 h, SRB
Procedure: as §1

SK-MEL-2 = assay: cells; assay type: cell-based; conditions: for LC50: Homo sapiens, SK-MEL-2, 48 h, read-out: LC50; for TGI: SK-MEL-2 (melanoma), 100% growth inhibition, 48 h, SRB
Procedure: as §1

CAK-1 = assay: cells; assay type: cell-based; conditions: 48 h; for CC50: read-out: LC50; for TGI: CAK-1 (kidneys), 100% growth inhibition, SRB
Procedure: as §1

EKVX = assay: cells; assay type: cell-based; conditions: 48 h; for TGI: EKVX (lung), 100% growth inhibition, SRB; for CC50: Homo sapiens, EKVX, read-out: LC50
Procedure: as §1

HCT-15 = assay: cells; assay type: cell-based; conditions: for TGI: HCT-15 (intestine), 100% growth inhibition, 48 h, SRB; for CC50: Homo sapiens, HCT-15, 48 h, read-out: LC50
Procedure: as §1

SF-539 = assay: cells; assay type: cell-based; conditions: for CC50: Homo sapiens, SF-539, 48 h, read-out: LC50; for TGI: SF-539 (central nervous system), 100% growth inhibition, 48 h, SRB
Procedure: as §1

**Q.** How did the “optimum T/C value” ([1]; 11.2 mg/kg/injection intraperitoneal, 5 treatments, day 13, nude mice) turn out when `C#CC1(O)C(COP(=O)(O)OC2C[C@H](n3cc(F)c(=O)[nH]c3=O)O[C@@H]2CO)OC(n2ccc(N)nc2=O)C1O` (stereo in doubt) [Example 1, 5-fluoro-2′-deoxyuridylyl-(3′-5′)-3′-C-ethynylcytidine] was run?
**A.** The value was 16.

**Q.** And the “maximum T/C value” ([1]; 16.75 mg/kg/injection intraperitoneal, 5 treatments, day 11 after tumor implantation, nude mice)?
**A.** The value was 7.

**Q.** And the “in vivo activity in the tumor model” value ([1]; LOX IMVI xenograft, overall conclusion)?
**A.** The value was “significant in vivo activity”.

**Q.** What about the “effectiveness compared with the 5′-5′-coupled duplex active substance (example 2)” value (Tumor cell lines; in vitro, tumor cell lines of the table) of the same compound?
**A.** Its value is “much more effective”.

**Q.** And the “TGI values lower compared with the 5′-5′-coupled isomer” value (Tumor cell lines; often, over the tumor cell lines)?
**A.** The value was “up to 1000 times”.

**Q.** And the TGI (HCC-2998)?
**A.** The TGI was 0.109 µM.

**Q.** What about the CC50 (HCC-2998) of the same compound?
**A.** Its CC50 is 1.73 µM.

**Q.** What about the CC50 (T-47D) of the same compound?
**A.** Its CC50 is over 100 µM.

**Q.** And the TGI (T-47D)?
**A.** The TGI was 26.7 µM.

**Q.** And the CC50 (MCF7)?
**A.** The CC50 was over 100 µM.

**Q.** And the TGI (MCF7)?
**A.** Its TGI is 0.137 µM.

**Q.** What about the CC50 (SF-295) of the same compound?
**A.** Its CC50 is over 100 µM.

**Q.** What about the TGI (SF-295) of the same compound?
**A.** Its TGI is 1.07 µM.

**Q.** And the TGI (ACHN)?
**A.** The TGI was 1.52 µM.

**Q.** What about the CC50 (ACHN) of the same compound?
**A.** Its CC50 is over 100 µM.

**Q.** What about the CC50 (LOX IMVI) of the same compound?
**A.** Its CC50 is 91.5 µM.

**Q.** And the TGI (LOX IMVI)?
**A.** The TGI was 0.348 µM.

**Q.** And the TGI (A549/ATCC)?
**A.** Its TGI is 29.6 µM.

**Q.** And the CC50 (A549/ATCC)?
**A.** Its CC50 is over 100 µM.

**Q.** What about the TGI (BT-549) of the same compound?
**A.** The TGI was 0.346 µM.

**Q.** And the CC50 (BT-549)?
**A.** Its CC50 is 6.39 µM.

**Q.** What about the TGI (DU-145) of the same compound?
**A.** Its TGI is 0.44 µM.

**Q.** And the CC50 (DU-145)?
**A.** Its CC50 is over 100 µM.

**Q.** And the CC50 (NCI-H522)?
**A.** The CC50 was over 100 µM.

**Q.** What about the TGI (NCI-H522) of the same compound?
**A.** Its TGI is 1.15 µM.

**Q.** And the CC50 (SNB-75)?
**A.** The CC50 was 4.72 µM.

**Q.** What about the TGI (SNB-75) of the same compound?
**A.** The TGI was 0.882 µM.

**Q.** And the TGI (HOP-92)?
**A.** Its TGI is 2.18 µM.

**Q.** And the CC50 (HOP-92)?
**A.** Its CC50 is over 100 µM.

**Q.** What about the CC50 (IGROV1) of the same compound?
**A.** Its CC50 is over 100 µM.

**Q.** What about the TGI (IGROV1) of the same compound?
**A.** The TGI was 12.9 µM.

**Q.** What about the LC50 (SK-MEL-2) of the same compound?
**A.** Its LC50 is 69.5 µM.

**Q.** And the TGI (SK-MEL-2)?
**A.** Its TGI is 0.424 µM.

**Q.** What about the CC50 (CAK-1) of the same compound?
**A.** Its CC50 is over 100 µM.

**Q.** What about the TGI (CAK-1) of the same compound?
**A.** The TGI was 0.0829 µM.

**Q.** And the TGI (EKVX)?
**A.** Its TGI is 6.37 µM.

**Q.** And the CC50 (EKVX)?
**A.** Its CC50 is over 100 µM.

**Q.** And the TGI (HCT-15)?
**A.** Its TGI is 15.1 µM.

**Q.** And the CC50 (HCT-15)?
**A.** Its CC50 is over 100 µM.

**Q.** And the CC50 (SF-539)?
**A.** The CC50 was 32.2 µM.

**Q.** And the TGI (SF-539)?
**A.** The TGI was 0.167 µM.

**Q.** Which results are given for `C#CC1(O)C(COP(=O)(O)OC[C@H]2O[C@@H](n3cc(F)c(=O)[nH]c3=O)CC2O)OC(n2ccc(N)nc2=O)C1O` (stereo in doubt) [Example 2, 5-fluoro-2′-deoxyuridylyl-(5′-5′)-3′-C-ethynylcytidine]?
**A.** TGI (HCC-2998): 2.95 µM; CC50 (HCC-2998): 57.2 µM; CC50 (T-47D): > 100 µM; TGI (T-47D): >100 µM; CC50 (MCF7): > 100 µM; TGI (MCF7): >100 µM; CC50 (SF-295): > 100 µM; TGI (SF-295): 20.6 µM; TGI (ACHN): >100 µM; CC50 (ACHN): > 100 µM; CC50 (LOX IMVI): ≥ 100 µM; TGI (LOX IMVI): 100 µM; TGI (A549/ATCC): >100 µM; CC50 (A549/ATCC): > 100 µM; TGI (BT-549): 11.6 µM; CC50 (BT-549): > 100 µM; TGI (DU-145): >100 µM; CC50 (DU-145): > 100 µM; CC50 (NCI-H522): > 100 µM; TGI (NCI-H522): >100 µM; CC50 (SNB-75): > 100 µM; TGI (SNB-75): >100 µM; TGI (HOP-92): 21.5 µM; CC50 (HOP-92): > 100 µM; CC50 (IGROV1): > 100 µM; TGI (IGROV1): >100 µM; LC50 (SK-MEL-2): 76.4 µM; TGI (SK-MEL-2): 5.78 µM; CC50 (CAK-1): > 100 µM; TGI (CAK-1): >100 µM; TGI (EKVX): >100 µM; CC50 (EKVX): > 100 µM; TGI (HCT-15): >100 µM; CC50 (HCT-15): > 100 µM; CC50 (SF-539): > 100 µM; TGI (SF-539): 2.01 µM
